Measured values published in PubChem BioAssay (NCI).
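Briefly, cells in 96-well plates were exposed to five compound concentrations for 48 h, and endpoints were estimated by linear interpolation. Definition used: TGI = concentration required for complete inhibition of growth.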

How the values were obtained:
Test in all cases: growth of human tumour cells (NCI), 48 h
[1] = test system: 786-0 renal
[2] = test system: A498 renal
[3] = test system: A549 NSCLC
[4] = test system: ACHN renal
[5] = test system: BT-549 breast
[6] = test system: CAKI-1 renal
[7] = test system: CCRF-CEM leukemia
[8] = test system: COLO 205 colon
[9] = test system: DU-145 prostate
[10] = test system: EKVX NSCLC
[11] = test system: HCC-2998 colon
[12] = test system: HCT-116 colon
[13] = test system: HCT-15 colon
[14] = test system: HL-60(TB) leukemia
[15] = test system: HOP-62 NSCLC
[16] = test system: HOP-92 NSCLC
[17] = test system: HS 578T breast
[18] = test system: HT29 colon
[19] = test system: IGROV1 ovarian
[20] = test system: K-562 leukemia
[21] = test system: KM12 colon
[22] = test system: LOX IMVI melanoma
[23] = test system: M14 melanoma
[24] = test system: MALME-3M melanoma
[25] = test system: MCF7 breast
[26] = test system: MDA-MB-231 breast
[27] = test system: MDA-MB-435
[28] = test system: MDA-N
[29] = test system: MOLT-4 leukemia
[30] = test system: NCI-H226 lung
[31] = test system: NCI-H23 lung
[32] = test system: NCI-H460 lung
[33] = test system: NCI-H522 lung
[34] = test system: NCI/ADR-RES ovarian
[35] = test system: OVCAR-3 ovarian
[36] = test system: OVCAR-4 ovarian
[37] = test system: OVCAR-5 ovarian
[38] = test system: OVCAR-8 ovarian
[39] = test system: PC-3 prostate
[40] = test system: RPMI-8226 leukemia
[41] = test system: RXF 393 renal
[42] = test system: SF-268 CNS
[43] = test system: SF-295 CNS
[44] = test system: SF-539 CNS
[45] = test system: SK-MEL-2 melanoma
[46] = test system: SK-MEL-28 melanoma
[47] = test system: SK-MEL-5 melanoma
[48] = test system: SK-OV-3 ovarian
[49] = test system: SN12C renal
[50] = test system: SNB-19 CNS
[51] = test system: SNB-75 CNS
[52] = test system: SR leukemia
[53] = test system: T-47D breast
[54] = test system: TK-10 renal
[55] = test system: U251 CNS
[56] = test system: UACC-257 melanoma
[57] = test system: UACC-62 melanoma
[58] = test system: UO-31 renal
[59] = test system: SW-620 colon

## COC(=O)[C@@]12OC[C@]34[C@H]([C@@H](O)[C@@H]1O)[C@@]1(C)CC(=O)C(OC(C)=O)=C(C)[C@@H]1C[C@H]3OC(=O)[C@H](OC(=O)C=C(C)C)[C@@H]24
[1]
  TGI: 3.19 µM
[2]
  TGI: 1.78 µM
[3]
  TGI: 4.92 µM
[4]
  TGI: 10.8 µM
[5]
  TGI: 5.27 µM
[6]
  TGI: 10.8 µM
[7]
  TGI: 3.83 µM
[8]
  TGI: 2.79 µM
[9]
  TGI: 6.37 µM
[10]
  TGI: 5.38 µM
[11]
  TGI: 0.716 µM
[12]
  TGI: 2 µM
[13]
  TGI: 7.46 µM
[14]
  TGI: 1.65 µM
[15]
  TGI: 2.86 µM
[16]
  TGI: 4.04 µM
[17]
  TGI: 3.32 µM
[18]
  TGI: 58.3 µM
[19]
  TGI: 2.59 µM
[20]
  TGI: 9.7 µM
[21]
  TGI: 4.18 µM
[22]
  TGI: 0.981 µM
[23]
  TGI: 2.63 µM
[24]
  TGI: 1.2 µM
[25]
  TGI: 2.99 µM
[26]
  TGI: 5.8 µM
[27]
  TGI: 3.45 µM
[28]
  TGI: 3.2 µM
[29]
  TGI: 4.23 µM
[30]
  TGI: 3.94 µM
[31]
  TGI: 2.2 µM
[32]
  TGI: 1.38 µM
[33]
  TGI: 1.49 µM
[34]
  TGI: 57.4 µM
[35]
  TGI: 1.01 µM
[36]
  TGI: 4.05 µM
[37]
  TGI: 6.79 µM
[38]
  TGI: 2.54 µM
[39]
  TGI: 4.01 µM
[40]
  TGI: 3.21 µM
[41]
  TGI: 3.41 µM
[42]
  TGI: 3.05 µM
[43]
  TGI: 3 µM
[44]
  TGI: 1.82 µM
[45]
  TGI: 2.79 µM
[46]
  TGI: 2.67 µM
[47]
  TGI: 1.33 µM
[48]
  TGI: 1.78 µM
[49]
  TGI: 4.52 µM
[50]
  TGI: 77.8 µM
[51]
  TGI: 4.45 µM
[52]
  TGI: 2.07 µM
[53]
  TGI: 5.93 µM
[54]
  TGI: 4.75 µM
[55]
  TGI: 3.26 µM
[56]
  TGI: 2.28 µM
[57]
  TGI: 3.16 µM
[58]
  TGI: 14.5 µM

## COC(O)C12OC3CO[Si](C(C)C)(C(C)C)O[Si](C(C)C)(C(C)C)OC3C1Oc1nc(=O)ccn12 (stereo not drawn)
[1]
  TGI: 31.1 µM
[2]
  TGI: 32.9 µM
[3]
  TGI: 26.1 µM
[4]
  TGI: 27.5 µM
[5]
  TGI: 29.3 µM
[6]
  TGI: 33.7 µM
[7]
  TGI: 18.5 µM
[8]
  TGI: 27.3 µM
[9]
  TGI: 30.6 µM
[10]
  TGI: 28.7 µM
[11]
  TGI: 14.9 µM
[12]
  TGI: 21.8 µM
[13]
  TGI: 30.9 µM
[14]
  TGI: 13.2 µM
[15]
  TGI: 26.9 µM
[16]
  TGI: 22 µM
[17]
  TGI: 19.5 µM
[18]
  TGI: 20.5 µM
[19]
  TGI: 25.6 µM
[20]
  TGI: 64.9 µM
[21]
  TGI: 19 µM
[22]
  TGI: 27.9 µM
[23]
  TGI: 25.3 µM
[24]
  TGI: 26.9 µM
[25]
  TGI: 24.8 µM
[26]
  TGI: 34 µM
[27]
  TGI: 26.7 µM
[28]
  TGI: 26.7 µM
[29]
  TGI: 5.78 µM
[30]
  TGI: 33.9 µM
[31]
  TGI: 28.4 µM
[32]
  TGI: 23.4 µM
[33]
  TGI: 18.3 µM
[34]
  TGI: 50.6 µM
[35]
  TGI: 23.5 µM
[36]
  TGI: 28 µM
[37]
  TGI: 29.1 µM
[38]
  TGI: 24.6 µM
[39]
  TGI: 17 µM
[40]
  TGI: 3.51 µM
[41]
  TGI: 24.6 µM
[42]
  TGI: 26.4 µM
[43]
  TGI: 24.8 µM
[44]
  TGI: 29.3 µM
[45]
  TGI: 25.1 µM
[46]
  TGI: > 100 µM
[47]
  TGI: 21.1 µM
[48]
  TGI: 31.6 µM
[49]
  TGI: 27.8 µM
[50]
  TGI: 28.9 µM
[51]
  TGI: 41.3 µM
[52]
  TGI: 6.98 µM
[59]
  TGI: > 52.7 µM
[53]
  TGI: 24.1 µM
[54]
  TGI: 28.7 µM
[55]
  TGI: > 48.3 µM
[56]
  TGI: 24.3 µM
[57]
  TGI: 23.4 µM
[58]
  TGI: 29.3 µM

## Cc1cc2c(cc1C)N1C(Cl)=C3CCCCC3=C(C#N)C1N2 (stereo not drawn)
[1]
  TGI: 3.61 µM
[2]
  TGI: 33.8 µM
[3]
  TGI: 45.8 µM
[4]
  TGI: 10.5 µM
[5]
  TGI: 8.46 µM
[6]
  TGI: 12.3 µM
[7]
  TGI: > 23.2 µM
[8]
  TGI: 33.9 µM
[9]
  TGI: 36.4 µM
[10]
  TGI: 41.2 µM
[11]
  TGI: 22.4 µM
[13]
  TGI: 7.76 µM
[14]
  TGI: > 100 µM
[15]
  TGI: 30.1 µM
[16]
  TGI: > 30.4 µM
[17]
  TGI: > 100 µM
[18]
  TGI: 6.94 µM
[19]
  TGI: 28.3 µM
[20]
  TGI: > 100 µM
[21]
  TGI: 24 µM
[22]
  TGI: 4.37 µM
[23]
  TGI: 21.2 µM
[24]
  TGI: 34.6 µM
[25]
  TGI: 21.6 µM
[26]
  TGI: 30.1 µM
[27]
  TGI: > 33.1 µM
[28]
  TGI: 15.1 µM
[29]
  TGI: > 42.9 µM
[30]
  TGI: 30.5 µM
[31]
  TGI: 14.2 µM
[32]
  TGI: 51.8 µM
[33]
  TGI: 3.91 µM
[34]
  TGI: 14.5 µM
[35]
  TGI: 30.5 µM
[36]
  TGI: 31.7 µM
[37]
  TGI: 36 µM
[38]
  TGI: 32.9 µM
[39]
  TGI: 27.3 µM
[40]
  TGI: > 100 µM
[41]
  TGI: 29 µM
[42]
  TGI: 60.4 µM
[43]
  TGI: 42.4 µM
[44]
  TGI: 41.6 µM
[45]
  TGI: 29.2 µM
[46]
  TGI: 10.6 µM
[47]
  TGI: > 32.8 µM
[48]
  TGI: 39.6 µM
[49]
  TGI: 14.7 µM
[50]
  TGI: 45.3 µM
[51]
  TGI: 56.9 µM
[52]
  TGI: > 100 µM
[59]
  TGI: 4.39 µM
[53]
  TGI: 28.3 µM
[54]
  TGI: 18.6 µM
[55]
  TGI: 24.6 µM
[56]
  TGI: 22.3 µM
[57]
  TGI: 7.63 µM
[58]
  TGI: 17.7 µM

## COc1cc2c(cc1OC)C(=O)/C(=C/c1ccccc1)CC2
[1]
  TGI: > 100 µM
[2]
  TGI: 44.8 µM
[3]
  TGI: > 100 µM
[4]
  TGI: > 100 µM
[5]
  TGI: 74.1 µM
[6]
  TGI: 48.3 µM
[7]
  TGI: > 100 µM
[8]
  TGI: 38.8 µM
[9]
  TGI: > 100 µM
[10]
  TGI: > 100 µM
[11]
  TGI: 54.9 µM
[12]
  TGI: > 100 µM
[13]
  TGI: 50.3 µM
[14]
  TGI: 17.2 µM
[15]
  TGI: > 100 µM
[16]
  TGI: 67.3 µM
[17]
  TGI: > 100 µM
[18]
  TGI: 46.2 µM
[19]
  TGI: > 100 µM
[20]
  TGI: > 100 µM
[21]
  TGI: 35.5 µM
[22]
  TGI: > 100 µM
[23]
  TGI: > 100 µM
[24]
  TGI: > 100 µM
[25]
  TGI: > 100 µM
[26]
  TGI: > 100 µM
[27]
  TGI: > 100 µM
[28]
  TGI: > 100 µM
[29]
  TGI: 71.2 µM
[30]
  TGI: 74.6 µM
[31]
  TGI: > 100 µM
[32]
  TGI: > 100 µM
[33]
  TGI: > 100 µM
[34]
  TGI: 70 µM
[35]
  TGI: > 100 µM
[36]
  TGI: > 100 µM
[37]
  TGI: > 100 µM
[38]
  TGI: > 100 µM
[39]
  TGI: > 100 µM
[40]
  TGI: > 100 µM
[41]
  TGI: > 100 µM
[42]
  TGI: > 100 µM
[43]
  TGI: 41.1 µM
[44]
  TGI: > 100 µM
[45]
  TGI: 29.8 µM
[46]
  TGI: > 100 µM
[47]
  TGI: 35.2 µM
[48]
  TGI: 97.5 µM
[49]
  TGI: > 100 µM
[50]
  TGI: > 100 µM
[51]
  TGI: > 100 µM
[52]
  TGI: > 100 µM
[59]
  TGI: > 100 µM
[53]
  TGI: > 100 µM
[54]
  TGI: > 100 µM
[55]
  TGI: > 100 µM
[56]
  TGI: > 100 µM
[58]
  TGI: > 100 µM
